Columns and labels:
Type in all cases: in vivo
[1] = tested on: redroot pigweed (Amaranthus retroflexus, AMARE); assay: Pre-emerge test, greenhouse herbicide activity screening; details: pre-emerge, rated 14 days after application, 0 = no damage, 100 = complete death
Outline: (§1)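 Compounds in acetone were track-sprayed at 15-1000 g ai/ha (187 l/ha) on sandy loam pots: pre-emerge one day after seeding, post-emerge at 2-3 leaf stage with 0.25% v/v non-ionic surfactant. Phytotoxicity was rated 14 days later on a 0 (no damage) to 100 (complete death) scale.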

[2] = tested on: green foxtail (Setaria viridis, SETVI); assay: as above; details: pre-emerge, rated 14 days after application, 0 = no damage, 100 = complete death
Outline: (§2)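 Visual ratings on a 0-100 scale (0 no damage, 100 all plants dead) were taken at 14 days after treatment. Rates of 15-1000 g ai/ha in acetone, 187 l/ha, were sprayed onto soil one day after planting (pre-emerge) or onto 2-3 leaf plants with 0.25% v/v surfactant (post-emerge).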

[3] = tested on: velvetleaf (Abutilon theophrasti, ABUTH); assay: as above; details: pre-emerge, rated 14 days after application, 0 = no damage, 100 = complete death
Outline: as §2

[4] = tested on: lambsquarters (Chenopodium album, CHEAL); assay: as above; details: pre-emerge, rated 14 days after application, 0 = no damage, 100 = complete death
Outline: as §2

[5] = tested on: sicklepod (Cassia obtusifolia, CASOB); assay: as above; details: pre-emerge, rated 14 days after application, 0 = no damage, 100 = complete death
Outline: as §2

[6] = tested on: barnyardgrass (Echinochloa crus-galli, ECHCG); assay: as above; details: pre-emerge, rated 14 days after application, 0 = no damage, 100 = complete death
Outline: as §2

[7] = tested on: johnsongrass (Sorghum halepense, SORHA); assay: as above; details: pre-emerge, rated 14 days after application, 0 = no damage, 100 = complete death
Outline: as §2

[8] = tested on: common ragweed (Ambrosia artemisizfolia L., AMBEL); assay: as above; details: pre-emerge, rated 14 days after application, 0 = no damage, 100 = complete death
Outline: as §2

[9] = tested on: large crabgrass (Digitaria sanguinalis, DIGSA); assay: as above; details: pre-emerge, rated 14 days after application, 0 = no damage, 100 = complete death
Outline: as §2

[10] = tested on: ivyleaf morningglory (Ipomoea hederacea, IPOHE); assay: as above; details: pre-emerge, rated 14 days after application, 0 = no damage, 100 = complete death
Outline: as §2

[11] = tested on: upland rice (Oryza sp., var. Tebonnet, RICE); assay: Pre-emerge test, crop safety; details: pre-emerge, rated 14 days after application, 0 = no damage, 100 = complete death
Outline: (§3)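 Compounds in acetone were track-sprayed at 187 l/ha, 15–1000 g ai/ha, onto sandy loam pots. Pre-emerge seeds were sown one day before spraying, with surface watering afterwards. Post-emerge plants were at the 2–3 leaf stage and sprayed with 0.25% v/v non-ionic surfactant. Injury was rated 0–100 at 14 days.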

[12] = tested on: field corn (Zea mays L., var. Dekalb 535, CORN); assay: Pre-emerge test, crop safety; details: pre-emerge, rated 14 days after application, 0 = no damage, 100 = complete death
Outline: as §3

[13] = tested on: upland rice (Oryza sp., var. Tebonnet, RICE); assay: Post-emerge test, crop safety; details: phytotoxicity rating 0-100 (0 no damage, 100 complete death), 14 days after application
Outline: as §2

[14] = tested on: field corn (Zea mays L., var. Dekalb 535, CORN); assay: Post-emerge test, crop safety; details: phytotoxicity rating 0-100 (0 no damage, 100 complete death), 14 days after application
Outline: as §2

[15] = tested on: green foxtail (Setaria viridis, SETVI); assay: Post-emerge test, greenhouse herbicide activity screening; details: phytotoxicity rating 0-100 (0 no damage, 100 complete death), 14 days after application
Outline: as §1

[16] = tested on: velvetleaf (Abutilon theophrasti, ABUTH); assay: as above; details: phytotoxicity rating 0-100 (0 no damage, 100 complete death), 14 days after application
Outline: as §1

[17] = tested on: lambsquarters (Chenopodium album, CHEAL); assay: as above; details: phytotoxicity rating 0-100 (0 no damage, 100 complete death), 14 days after application
Outline: as §1

[18] = tested on: redroot pigweed (Amaranthus retroflexus, AMARE); assay: as above; details: phytotoxicity rating 0-100 (0 no damage, 100 complete death), 14 days after application
Outline: as §1

[19] = tested on: sicklepod (Cassia obtusifolia, CASOB); assay: as above; details: phytotoxicity rating 0-100 (0 no damage, 100 complete death), 14 days after application
Outline: as §1

[20] = tested on: barnyardgrass (Echinochloa crus-galli, ECHCG); assay: as above; details: phytotoxicity rating 0-100 (0 no damage, 100 complete death), 14 days after application
Outline: as §1

[21] = tested on: johnsongrass (Sorghum halepense, SORHA); assay: as above; details: phytotoxicity rating 0-100 (0 no damage, 100 complete death), 14 days after application
Outline: as §1

[22] = tested on: common ragweed (Ambrosia artemisizfolia L., AMBEL); assay: as above; details: phytotoxicity rating 0-100 (0 no damage, 100 complete death), 14 days after application
Outline: as §1

[23] = tested on: large crabgrass (Digitaria sanguinalis, DIGSA); assay: as above; details: phytotoxicity rating 0-100 (0 no damage, 100 complete death), 14 days after application
Outline: as §1

[24] = tested on: ivyleaf morningglory (Ipomoea hederacea, IPOHE); assay: as above; details: phytotoxicity rating 0-100 (0 no damage, 100 complete death), 14 days after application
Outline: as §1

Structure (SMILES): COc1c(Cl)cc(F)c(-n2c(=O)cc(C(F)(F)F)n(N)c2=O)c1N [Compound 1-13]
- Pre-emerge Herbicidal Activity AMARE (phytotoxicity rating, scale 0-100) ([1]; 63 g ai/ha): 100
- Pre-emerge Herbicidal Activity AMARE (phytotoxicity rating, scale 0-100) ([1]; 250 g ai/ha): 100
- Pre-emerge Herbicidal Activity SETVI (phytotoxicity rating, scale 0-100) ([2]; 63 g ai/ha): 100
- Pre-emerge Herbicidal Activity SETVI (phytotoxicity rating, scale 0-100) ([2]; 250 g ai/ha): 100
- Pre-emerge Herbicidal Activity ABUTH (phytotoxicity rating, scale 0-100) ([3]; 63 g ai/ha): 100
- Pre-emerge Herbicidal Activity ABUTH (phytotoxicity rating, scale 0-100) ([3]; 250 g ai/ha): 100
- Pre-emerge Herbicidal Activity CHEAL (phytotoxicity rating, scale 0-100) ([4]; 63 g ai/ha): 100
- Pre-emerge Herbicidal Activity CHEAL (phytotoxicity rating, scale 0-100) ([4]; 250 g ai/ha): 100
- Pre-emerge Herbicidal Activity CASOB (phytotoxicity rating, scale 0-100) ([5]; 63 g ai/ha): 80
- Pre-emerge Herbicidal Activity CASOB (phytotoxicity rating, scale 0-100) ([5]; 250 g ai/ha): 100
- Pre-emerge Herbicidal Activity ECHCG (phytotoxicity rating, scale 0-100) ([6]; 63 g ai/ha): 90
- Pre-emerge Herbicidal Activity ECHCG (phytotoxicity rating, scale 0-100) ([6]; 250 g ai/ha): 100
- Pre-emerge Herbicidal Activity SORHA (phytotoxicity rating, scale 0-100) ([7]; 63 g ai/ha): 95
- Pre-emerge Herbicidal Activity SORHA (phytotoxicity rating, scale 0-100) ([7]; 250 g ai/ha): 100
- Pre-emerge Herbicidal Activity AMBEL (phytotoxicity rating, scale 0-100) ([8]; 63 g ai/ha): 100
- Pre-emerge Herbicidal Activity AMBEL (phytotoxicity rating, scale 0-100) ([8]; 250 g ai/ha): 100
- Pre-emerge Herbicidal Activity DIGSA (phytotoxicity rating, scale 0-100) ([9]; 63 g ai/ha): 100
- Pre-emerge Herbicidal Activity DIGSA (phytotoxicity rating, scale 0-100) ([9]; 250 g ai/ha): 100
- Pre-emerge Herbicidal Activity IPOHE (phytotoxicity rating, scale 0-100) ([10]; 63 g ai/ha): 100
- Pre-emerge Herbicidal Activity IPOHE (phytotoxicity rating, scale 0-100) ([10]; 250 g ai/ha): 100
- Pre-emerge crop damage RICE (phytotoxicity rating, scale 0-100) ([11]; 63 g ai/ha): 95
- Pre-emerge crop damage RICE (phytotoxicity rating, scale 0-100) ([11]; 250 g ai/ha): 100
- Pre-emerge crop damage CORN (phytotoxicity rating, scale 0-100) ([12]; 63 g ai/ha): 60
- Pre-emerge crop damage CORN (phytotoxicity rating, scale 0-100) ([12]; 250 g ai/ha): 95
- Post-emerge Herbicidal Activity RICE (crop damage) ([13]; 63 g ai/ha): 30
- Post-emerge Herbicidal Activity RICE (crop damage) ([13]; 250 g ai/ha): 80
- Post-emerge Herbicidal Activity CORN (crop damage) ([14]; 63 g ai/ha): 20
- Post-emerge Herbicidal Activity CORN (crop damage) ([14]; 250 g ai/ha): 80
- Post-emerge Herbicidal Activity SETVI ([15]; 63 g ai/ha): 30
- Post-emerge Herbicidal Activity SETVI ([15]; 250 g ai/ha): 90
- Post-emerge Herbicidal Activity ABUTH ([16]; 63 g ai/ha): 100
- Post-emerge Herbicidal Activity ABUTH ([16]; 250 g ai/ha): 100
- Post-emerge Herbicidal Activity CHEAL ([17]; 63 g ai/ha): 100
- Post-emerge Herbicidal Activity CHEAL ([17]; 250 g ai/ha): 100
- Post-emerge Herbicidal Activity AMARE ([18]; 63 g ai/ha): 100
- Post-emerge Herbicidal Activity AMARE ([18]; 250 g ai/ha): 100
- Post-emerge Herbicidal Activity CASOB ([19]; 63 g ai/ha): 30
- Post-emerge Herbicidal Activity CASOB ([19]; 250 g ai/ha): 70
- Post-emerge Herbicidal Activity ECHCG ([20]; 63 g ai/ha): 30
- Post-emerge Herbicidal Activity ECHCG ([20]; 250 g ai/ha): 70
- Post-emerge Herbicidal Activity SORHA ([21]; 63 g ai/ha): 10
- Post-emerge Herbicidal Activity SORHA ([21]; 250 g ai/ha): 90
- Post-emerge Herbicidal Activity AMBEL ([22]; 63 g ai/ha): 70
- Post-emerge Herbicidal Activity AMBEL ([22]; 250 g ai/ha): 85
- Post-emerge Herbicidal Activity DIGSA ([23]; 63 g ai/ha): 0
- Post-emerge Herbicidal Activity DIGSA ([23]; 250 g ai/ha): 75
- Post-emerge Herbicidal Activity IPOHE ([24]; 63 g ai/ha): 100
- Post-emerge Herbicidal Activity IPOHE ([24]; 250 g ai/ha): 100
